Laboratory results taken from patent publication US7705178B2, “Altering the crystal size distribution of N-(phosphonomethyl) iminodiacetic acid for improved filtration and product quality” (priority 2005, dated 2010).
Several values for one entry are separate records, joined by “and”; a condition that tells them apart may be missing. Equal entries are not always repeated.

Assays:
[1] = format: physicochemical; conditions: room temperature (about 25 °C); mother liquor having a relatively high impurity content
Text: It has been determined that glyphosine and NMG are more soluble in PMIDA mother liquor than is PMIDA. […] Those solubility limits are higher than the impurity concentration typically encountered in the prior art processes, thus it is believed that it is unlikely that impurity partitioning to the PMIDA wetcake results from solubility considerations such as impurities precipitating from solution onto the forming PMIDA crystal.

[2] = PMIDA solubility in acidified PM mother liquor; format: physicochemical; conditions: commercial batch mother liquor acidified with HCl
Description: For instance, mother liquor recovered at the end of a commercial scale batch was acidified with HCl in order to have an HCl content approximately equivalent to that found at the end of the PM reaction.
The data in Table 9B indicate that low levels of supersaturation will relieve over time. […] Solubility experiments indicate that the PMIDA solubility limit in acidified ML at 105° C. is between about 6.4 wt % and about 8.5 wt %. As noted in Tables 9A and 9B, equilibrium samples were also taken at various temperatures.

[3] = Equilibrium PMIDA concentration in PM reactor mother liquor (interrupted feed experiments); format: physicochemical; conditions: for Equilibrium PMIDA in PM mother liquor (wt %): 60:40 DSIDA split
Description: PMIDA solubility limits change throughout the PM reaction making supersaturation prediction problematic. Several laboratory experiments were performed at 105° C. using a 60:40 DSIDA split between the hydrolyzer and PM reactor in order to evaluate supersaturation limits during seeding and the initial stages of the crystallization event. The PM feed amounts were altered such that only a portion of the typical feed amounts were used in order to simulate various stages of the PM reaction step. […] It is believed, without being bound to any particular theory, that as NaCl is produced during the PM reaction, and HCl is consumed, PMIDA solubility is suppressed. Table B presents PMIDA solubility in the PM reactor mother liquor at varying amounts of formalin addition.
Several laboratory experiments using an interrupted feed were performed to evaluate supersaturation limits during seeding and the initial stages of the crystallization event. The PM feed amounts were altered such that only a portion of the typical feed amounts were used in order to simulate various stages of the PM reaction step. The first two experiments were designed such that only about 40% of the typical feed amounts were used in order to mimic reactor conditions that occurred during seed addition of early-seeding experiments. These experiments utilized a 60:40 DSIDA split between the hydrolyzer and PM reactor, 43% formalin, and DSIDA1. In the first experiment, a spike of about 0.3% of NMG on a final batch weight basis was added to the reactor following the hydrolysis step. Following the PM reaction, about 6.4% of seed on a final batch weight basis were added after the feeds were completed and a sample was removed. Post-seed samples were removed at 20, 40 and 100 minutes following the seed addition to determine the rate at which supersaturation would be relieved. All of the samples were taken at approximately 105° C. As the temperature decreased, additional samples were taken at 75° C. and 50° C. The first experiment data are in Table 9A below.
In the second experiment, no NMG was added after the hydrolysis step, and seed crystals were not added. Post-feed samples were removed at 0, 60 and 240 minutes following completion of the feed addition. The second experiment data are in Table 9B below.
A third experiment was designed such that only about 70% of the typical feed amounts were used in order to simulate PM reactor conditions when the PMIDA crystallization event typically takes place. The experiment utilized a 60:40 DSIDA split between the hydrolyzer and PM reactor, 37% formalin, and DSIDA1. No NMG was added after the hydrolysis step, and seed crystals were not added. Following the completion of the feeds, the reactor contents were allowed to mix at 105° C. for approximately 21 hours before sampling.
The fourth experiment was designed such that 100% of the typical feed amounts were added to the reactor in order to determine the equilibrium PMIDA solubility of the mother liquor after all of the feeds had been added. This experiment utilized a 60:40 DSIDA split between the hydrolyzer and PM reactor, 37% formalin, and DSIDA1. No NMG was added after the hydrolysis step, and seed crystals were not added. Following completion of the feeds, the reactor contents were allowed to mix at 105° C. for approximately 21 hours before sampling. […] Thus, it is believed, without being bound to any particular theory, that as the PM reaction progresses, supersaturation increase is a function of both PMIDA in situ generation and a decreasing solubility limit.
A fifth experiment was designed to determine the equilibrium mother liquor PMIDA concentration just prior to the crystallization event when a 75:25 DSIDA feed split is used. In addition to the feed split, the experiment used 37% formalin and DSIDA1. No NMG was added after the hydrolysis step, and seed crystals were not added. Mother liquor samples were removed during the course of the experiment. […]

Structure (SMILES)	solubility limit in PMIDA mother liquor [1]	PMIDA Solubility in PM Mother Liquor, PM (wt %) ([2]; 20 °C)	PMIDA Solubility in PM Mother Liquor, PM (wt %) ([2]; 50 °C)	PMIDA Solubility in PM Mother Liquor, PM (wt %) ([2]; 70 °C)	PMIDA Solubility in PM Mother Liquor, PM (wt %) ([2]; 90 °C)	PMIDA Solubility in PM Mother Liquor, PM (wt %) ([2]; 115 °C)	Equilibrium PMIDA in PM mother liquor (wt %) ([3]; 40% of total formalin added to PM reactor, 105 °C) [% wt %]	Equilibrium PMIDA in PM mother liquor (wt %) ([3]; 70% of total formalin added to PM reactor, 105 °C)	Equilibrium PMIDA in PM mother liquor (wt %) ([3]; 100% of total formalin added to PM reactor, 105 °C)	PM mother liquor PMIDA concentration, averaged equilibrium data ([3]; 105 °C, average of interrupted runs 1 and 2)	ML PMIDA (wt %), equilibrium ([3]; PM interrupted run 1 (about 40% of feeds, seeded, NMG spike), equilibrium at 50 °C) [wt %]	ML PMIDA (wt %), equilibrium ([3]; PM interrupted run 1 (about 40% of feeds, seeded, NMG spike), equilibrium at 75 °C) [wt %]	ML PMIDA (wt %), equilibrium ([3]; PM interrupted run 1 (about 40% of feeds, seeded, NMG spike), equilibrium at 105 °C) [wt %]	ML PMIDA (wt %), equilibrium ([3]; PM interrupted run 2 (about 40% of feeds, no seed, no NMG), equilibrium at 50 °C) [wt %]	ML PMIDA (wt %), equilibrium ([3]; PM interrupted run 2 (about 40% of feeds, no seed, no NMG), equilibrium at 75 °C) [wt %]	ML PMIDA (wt %), equilibrium ([3]; PM interrupted run 2 (about 40% of feeds, no seed, no NMG), equilibrium at 105 °C) [wt %]	ML PMIDA (wt %), equilibrium ([3]; PM interrupted run 5, 75:25 DSIDA split, 84.0% of total formalin added, equilibrium at 105 °C, about 19 hours) [wt %]
O=C(O)CN(CP(=O)(O)O)CP(=O)(O)O [glyphosine, N,N-bis-(phosphonomethyl)glycine]	about 3.9 wt %	–	–	–	–	–	–	–	–	–	–	–	–	–	–	–	–
O=C(O)CN(CC(=O)O)CP(=O)(O)O [PMIDA, N-(phosphonomethyl)iminodiacetic acid]	–	0.52	1.26	2.29	4.15	8.72	12.6	8.6 wt % and 8.6% wt %	5.9 wt % and 5.9% wt %	about 16.4 wt %	3.3	5.3	12.4	4.0	8.1	13.8	14.4
CN(CC(=O)O)CP(=O)(O)O [NMG, N-methyl-N-(phosphonomethyl)glycine]	about 3.6 wt %	–	–	–	–	–	–	–	–	–	–	–	–	–	–	–	–
